The test system of data set [1] is tobacco leaves (first to fourth leaves from the top). In words: Harmful effect of the inhibitor on tobacco leaves (growth inhibition, gangrene, change in color, deformation). It counts as in vivo, Nicotiana tabacum, Tsukuba 1 (flue-cured cultivar). On the procedure:
(§1) Tobacco seedlings of Tsukuba 1 (flue-cured cultivar) were transplanted to 1/5000a Wagner pots filled with Kureha garden nursery soil. The plants were grown in a glasshouse, and the floral axis parts were removed at the time of single-flower bloom of tobacco (top pruning).
(§2) Samples were prepared by diluting the above-mentioned formulation containing 10% of chlorthal-dimethyl with water to predetermined concentrations, and adding thereto the formulation containing 70% of decyl alcohol so as to make each sample have a predetermined concentration, and subjected to the test (Examples 1 to 6). Samples were also prepared by diluting the formulation containing 10% of chlorthal-dimethyl with water to predetermined concentrations, and adding thereto the formulation containing 70% of 2-ethyl hexanol so as to make each sample have a predetermined concentration, and subjected to the test (Examples 7 to 12). Samples were also prepared by diluting the formulation containing 10% of chlorthal-dimethyl with water to predetermined concentrations, and adding thereto the formulation containing 70% of […] so as to make each sample have a predetermined concentration, and subjected to the test (Examples 13 to 18). Furthermore, as Comparative Examples, samples were prepared by diluting samples were also prepared by diluting the formulation containing 10% of chlorthal-dimethyl with water to predetermined concentrations (Comparative Examples 1 to 4), by diluting the formulation containing 70% of decyl alcohol with water to predetermined concentrations (Comparative Examples 5 to 7), and by diluting the formulation containing 70% of […] with water to predetermined concentrations (Comparative Examples 8 to 10), and by diluting the formulation containing 70% of […] with water to predetermined concentrations (Comparative Examples 11 to 13) to be subjected to the test. In addition, butralin (tradename: Blue Ribbon) (Comparative Example 14) was subjected to the test.
(§3) With respect to each of the formulations of the inhibitors for tobacco axillary bud growth, 20 ml of the water-diluted solutions of the respective inhibitors were separately sprayed using a contact-type axillary bud inhibitor spraying instrument equipped with a spot exhaust nozzle. One tobacco plant was planted per pot, and the tests were carried out in duplicate.
Further, the presence or absence of the harmful effect of each inhibitor was evaluated in one of the following four categories depending on the degrees of growth inhibition, gangrene, change in color, deformation and the like of leaves (first to fourth leaves from the top).
Large: A severely harmful effect was observed.
Middle: A clearly harmful effect was observed.
Small: A slightly harmful effect was observed.
Absent: No harmful effect was observed.

Data set [2] deals with tobacco axillary bud growth. In words: Tobacco axillary bud growth inhibition test, pot plants after top pruning, contact spray. The note with it: single active ingredient, 20 ml sprayed per plant, 28 days after spraying. It counts as in vivo, Nicotiana tabacum, Tsukuba 1 (flue-cured cultivar). On the procedure:
as §1, §2, §3
For the respective cases, states of inhibition of axillary bud growth 28 days after the spraying were investigated together with untreated groups sprayed with no inhibitor, and axillary bud growth inhibition rates were calculated by the following equation. Axillary bud growth inhibition rate=(fresh weight of axillary buds per plant of untreated group−fresh weight of axillary buds per plant of treated group)÷(fresh weight of axillary buds per plant of untreated group)×100 [Math. 1]
It should be noted that the values in parentheses in Table 1 represent predicted values of the effects of inhibiting axillary bud growth of mixed agents (that is, compounds mixed as active ingredients), that is, expected values of additive effects. The expected values were calculated by the following Colby's equation (Colby. S. R.; “Calculating Synergistic and Antagonistic Responses of Herbicide Combinations” Weed, Vol. 15(1), 20-22, 1967). Colby's equation: E=x+y−x·y/100 [Math. 2]
E: Axillary bud growth inhibition rate in the case of using a mixture of active compound A (concentration a) and active compound B (concentration b) (theoretical axillary bud growth inhibition rate)
x: Axillary bud growth inhibition rate in the case of using active compound A at concentration a
y: Axillary bud growth inhibition rate in the case of using active compound B at concentration b
In the case where a measured value determined in the above-mentioned test (axillary bud growth inhibition rate) was larger than the expected value, a synergetic effect was expressed on activity to suppress axillary bud growth.

SMILES strings stand for the structures.

Consider `COC(=O)c1c(Cl)c(Cl)c(C(=O)OC)c(Cl)c1Cl` [Comparative Ex. 1, dimethyl tetrachloroterephthalate], for which, in data set [1] (in vivo), the Harmful effect entry is listed as “None”. For the same compound, the “Axillary bud growth inhibition (%)” value in data set [2] (concentration 0.002 %) turned out to be 1.1%.
Turning to `COC(=O)c1c(Cl)c(Cl)c(C(=O)OC)c(Cl)c1Cl` [Comparative Ex. 2, dimethyl tetrachloroterephthalate], in data set [1] (in vivo), the Harmful effect result was “None”. Moreover, the “Axillary bud growth inhibition (%)” value in data set [2] (concentration 0.005 %) is recorded as 4.2%.
Turning to `COC(=O)c1c(Cl)c(Cl)c(C(=O)OC)c(Cl)c1Cl` [Comparative Ex. 3, dimethyl tetrachloroterephthalate], the Harmful effect entry in data set [1] (in vivo) is reported as “None”. In data set [2] (concentration 0.01 %), the “Axillary bud growth inhibition (%)” value worked out at 23.4%.
With `COC(=O)c1c(Cl)c(Cl)c(C(=O)OC)c(Cl)c1Cl` [Comparative Ex. 4, dimethyl tetrachloroterephthalate], the Harmful effect entry in data set [1] (in vivo) is given as “None”. The “Axillary bud growth inhibition (%)” value in data set [2] (concentration 1 %) stood at 100%.
As for `CCCCCCCCCCO` [Comparative Ex. 5, Decyl alcohol], in data set [1] (in vivo), the Harmful effect result was “None”. In addition, in data set [2] (concentration 0.7 %), the “Axillary bud growth inhibition (%)” value is on record as 41.4%.
Consider `CCCCCCCCCCO` [Comparative Ex. 6, Decyl alcohol], for which, in data set [1] (in vivo), the Harmful effect result is reported as “None”. Moreover, the “Axillary bud growth inhibition (%)” value in data set [2] (concentration 1.4 %) stood at 68.6%.
With `CCCCCCCCCCO` [Comparative Ex. 7, Decyl alcohol], in data set [2] (concentration 2.6 %), the “Axillary bud growth inhibition (%)” value is given as 86.8%.
With `CCCCC(CC)CO` (stereo not drawn) [Comparative Ex. 8, 2-ethyl hexanol], the Harmful effect result in data set [1] (in vivo) is on record as “None”. For the same compound, the “Axillary bud growth inhibition (%)” value in data set [2] (concentration 0.7 %) is 33.1%.
On to `CCCCC(CC)CO` (stereo not drawn) [Comparative Ex. 9, 2-ethyl hexanol], for which the Harmful effect result in data set [1] (in vivo) was “None”. Besides, the “Axillary bud growth inhibition (%)” value in data set [2] (concentration 1.4 %) is 66.6%.
As for `CCCCC(CC)CO` (stereo not drawn) [Comparative Ex. 10, 2-ethyl hexanol], the “Axillary bud growth inhibition (%)” value in data set [2] (concentration 2.6 %) was 82.1%.
For the compound `CC(C)=CCC/C(C)=C/CO` [Comparative Ex. 11, Geraniol], the Harmful effect entry in data set [1] (single active ingredient, concentration 0.7 %, 20 ml sprayed per plant) is reported as “None”. The “Axillary bud growth inhibition (%)” value in data set [2] (concentration 0.7 %) was 52.1%.
In the case of `CC(C)=CCC/C(C)=C/CO` [Comparative Ex. 12, Geraniol], the Harmful effect entry in data set [1] (single active ingredient, concentration 1.4 %, 20 ml sprayed per plant) is given as “None”. In addition, the “Axillary bud growth inhibition (%)” value in data set [2] (concentration 1.4 %) was found to be 72.5%.
In the case of `CC(C)=CCC/C(C)=C/CO` [Comparative Ex. 13, Geraniol], the Harmful effect entry in data set [1] (single active ingredient, concentration 2.6 %, 20 ml sprayed per plant) was “Medium degree”; in data set [1] (single active ingredient, concentration 2.6 %, 20 ml sprayed per plant, listed as Comparative Example 13), “small or medium degree”. Besides, the “Axillary bud growth inhibition (%)” value in data set [2] (concentration 2.6 %) came to 87.9%.
Consider `CCC(C)Nc1c([N+](=O)[O-])cc(C(C)(C)C)cc1[N+](=O)[O-]` (stereo not drawn) [Comparative Ex. 14, Butralin], for which, in data set [1] (in vivo), the Harmful effect result is “Small degree”. For the same compound, in data set [2] (concentration 0.35 %), the “Axillary bud growth inhibition (%)” value came out at 98.2%.

For the origin of these results see patent publication US9686983B2, “Tobacco axillary bud growth inhibitor and method for inhibiting tobacco axillary bud growth” (SDS BIOTECH K. K., priority 2013, dated 2017).
